Measurements from article PMC5854577, “A common mechanism of proteasome impairment by neurodegenerative disease-associated oligomers” (Nature Communications, 2018).
Starred links: 1 amine or outer side, 2 acyl side, 3 side chain; linkers in the order of their positions; H or OH if unused. Residues, ends and D or L forms follow the SMILES beside them. *: point of attachment. AMC = Cc1cc(=O)oc2cc(N*)ccc12; Suc = O=C(CCC(=O)[*:2])[*:1]

Target: T1, Mammalian 20S proteasome (bovine 20S) (Bos taurus, UniProt Q32KL2+Q3MHN0+Q3T0X5+Q5E987)
T1 construct: gene PSMB5; with Proteasome subunit beta type-1; Proteasome subunit beta type-2; Proteasome subunit beta type-3; Proteasome subunit beta type-4
Test: fluorogenic peptide hydrolysis
Type: biochemical
Settings: chymotrypsin-like activity; 100 uM substrate, pH 7.4

For `Cc1cc(=O)oc2cc(NC(=O)[C@H](Cc3ccc(O)cc3)NC(=O)[C@@H](NC(=O)[C@H](CC(C)C)NC(=O)[C@H](CC(C)C)NC(=O)CCC(=O)O)C(C)C)ccc12` [suc-LLVY-amc] (Suc-LLVY-{AMC}), the fluorogenic peptide hydrolysis was “Proteasome activity (linear rate of LLVY-amc hydrolysis)”.
